Measured values taken from patent publication US4281136A, “2-Alkyl-3-haloisothiazolium salts and their derivatives” (Givaudan Corporation, priority 1978, dated 1981).
Converted amounts (≈) assume the structure as drawn. Read-outs that look alike come from different tables or passages of the source.

Tested on: Ps. aeruginosa
Experiment: preservative for cutting oil emulsions
Type: cell-based
Conditions: for Minimum Inhibitory Concentration: listed as CH3, Cl, H; for MIC: Pseudomonas aeruginosa
Method: Various aliquots of a 6% solution of the chemical in ethanol were added to cutting oil emulsions prepared by diluting Kutwell 30 cutting oil concentrate 1 to 30 with water. These samples were inoculated with a culture of Ps. aeruginosa and incubated at 28° on a rotary shaker. At weekly intervals the samples were examined for microorganisms and then reinoculated and incubated.

[1] = 168 h, read-out: Minimum Inhibitory Concentration, cutting oil emulsion, incubation 1 week, 28°
[2] = 336 h, read-out: Minimum Inhibitory Concentration, cutting oil emulsion, incubation 2 weeks, 28°
[3] = 504 h, read-out: Minimum Inhibitory Concentration, cutting oil emulsion, incubation 3 weeks, 28°
[4] = 672 h, read-out: Minimum Inhibitory Concentration, cutting oil emulsion, incubation 4 weeks, 28°
[5] = 168 h, cutting oil emulsion, incubation 1 week, 28°, read-out: Minimum Inhibitory Concentration
[6] = 336 h, cutting oil emulsion, incubation 2 weeks, 28°, read-out: Minimum Inhibitory Concentration
[7] = 504 h, cutting oil emulsion, incubation 3 weeks, 28°, read-out: Minimum Inhibitory Concentration
[8] = 672 h, cutting oil emulsion, incubation 4 weeks, 28°, read-out: Minimum Inhibitory Concentration

SMILES	MIC [5]	MIC [6]	MIC [7]	MIC [8]	other results
C[n+]1sccc1Cl [No. 16 (Table I)]					Minimum Inhibitory Concentration (cutting oil emulsion, incubation 1 week, 28°, SbCl6): 8 µg/mL; Minimum Inhibitory Concentration (cutting oil emulsion, incubation 2 weeks, 28°, SbCl6): 16 µg/mL; Minimum Inhibitory Concentration (cutting oil emulsion, incubation 3 weeks, 28°, SbCl6): 16 µg/mL; Minimum Inhibitory Concentration (cutting oil emulsion, incubation 4 weeks, 28°, SbCl6): 16 µg/mL
C[n+]1sccc1Cl [No. 17 (Table I)]					Minimum Inhibitory Concentration (cutting oil emulsion, incubation 1 week, 28°, PF6): 32 µg/mL; Minimum Inhibitory Concentration (cutting oil emulsion, incubation 2 weeks, 28°, PF6): 32 µg/mL; Minimum Inhibitory Concentration (cutting oil emulsion, incubation 3 weeks, 28°, PF6): 32 µg/mL; Minimum Inhibitory Concentration (cutting oil emulsion, incubation 4 weeks, 28°, PF6): 32 µg/mL
CC[n+]1sccc1Cl [No. 18 (Table I), 3-Chloro-2-ethylisothiazolium ethylsulfate]					MIC [1]: 125 µg/mL; MIC [2]: 125 µg/mL; MIC [3]: 125 µg/mL; MIC [4]: 500 µg/mL
CCC[n+]1sccc1Cl [No. 20 (Table I)]					MIC [1]: 125 µg/mL; MIC [2]: 250 µg/mL; MIC [3]: 250 µg/mL; MIC [4]: 500 µg/mL
C[n+]1scc(Cl)c1Cl [No. 23 (Table I)]					Minimum Inhibitory Concentration (cutting oil emulsion, incubation 3 weeks, 28°, Cl, O3SOMe): 32 µg/mL; Minimum Inhibitory Concentration (cutting oil emulsion, incubation 4 weeks, 28°, Cl, O3SOMe): 32 µg/mL
CCOC(=O)c1s[n+](C)c(Cl)c1Cl [No. 24 (Table I), 3,4-Dichloro-2-methyl-5-ethoxycarbonylisothiazolium fluorosulfonate]	125 µg/mL	250 µg/mL	250 µg/mL	250 µg/mL	
C[n+]1sc(C#N)c(Cl)c1Cl [No. 25 (Table I), 5-Cyano-3,4-dichloro-2-methylisothiazolium fluorosulfonate]	< 16 µg/mL	125 µg/mL	250 µg/mL	250 µg/mL	
Cc1s[n+](C)c(Cl)c1Cl [No. 27 (Table I), 3,4-Dichloro-2,5-dimethylisothiazolium fluorosulfonate]					MIC [1]: 125 µg/mL; MIC [2]: 250 µg/mL; MIC [3]: 500 µg/mL; MIC [4]: 500 µg/mL
C[n+]1scc([N+](=O)[O-])c1Cl [No. 28 (Table I)]	125 µg/mL	500 µg/mL	500 µg/mL	500 µg/mL	
CCN1SC=CC1=C(C#N)C#N [drawing 12 CH2CH3, H, H]	125 µg/mL (≈ 705 µM)	250 µg/mL (≈ 1410 µM)	250 µg/mL (≈ 1410 µM)	500 µg/mL (≈ 2820 µM)	
CC1=C(Cl)C(=C(C#N)C#N)N(C)S1 [drawing 12 CH3, Cl, CH3]	250 µg/mL (≈ 1180 µM)	500 µg/mL (≈ 2360 µM)	500 µg/mL (≈ 2360 µM)	1000 µg/mL (≈ 4720 µM)	
CN1SC(C#N)=C(Cl)C1=C(C#N)C#N [drawing 12 CH3, Cl, CN]	62 µg/mL (≈ 278 µM)	250 µg/mL (≈ 1120 µM)	250 µg/mL (≈ 1120 µM)	250 µg/mL (≈ 1120 µM)	
CCOC(=O)C1=C(Cl)C(=C(C#N)C#N)N(C)S1 [drawing 12 CH3, Cl, COOEt, 4-Chloro-3-dicyanomethylene-5-ethoxycarbonyl-2-methyl-4-isothiazoline]	125 µg/mL (≈ 463 µM)	125 µg/mL (≈ 463 µM)	125 µg/mL (≈ 463 µM)	125 µg/mL (≈ 463 µM)	
CN1SC=C(Cl)C1=C(C#N)C#N [drawing 12 CH3, Cl, H]	< 32 µg/mL	< 32 µg/mL	< 32 µg/mL	< 32 µg/mL	
CN1SC=CC1=C(C#N)C#N [drawing 12 CH3, H, H]	250 µg/mL (≈ 1530 µM)	500 µg/mL (≈ 3060 µM)	500 µg/mL (≈ 3060 µM)	500 µg/mL (≈ 3060 µM)	
